Assay [1] addresses Inosine-5'-monophosphate dehydrogenase 2 (Homo sapiens, UniProt P12268). Briefly: Inhibition of human IMPDH2.
The target in assay [2] is Inosine-5'-monophosphate dehydrogenase 1 (Homo sapiens, UniProt P20839). Put plainly: Inhibition of human IMPDH1.
Assay [3] concerns the target Inosine-5'-monophosphate dehydrogenase (IMPDH) (Homo sapiens) (UniProt P20839+P12268). Briefly: Selectivity for IMPDH1 over IMPDH2. In kind it is protein assay.

Sequence of Inosine-5'-monophosphate dehydrogenase 1 (P20839 whole entry): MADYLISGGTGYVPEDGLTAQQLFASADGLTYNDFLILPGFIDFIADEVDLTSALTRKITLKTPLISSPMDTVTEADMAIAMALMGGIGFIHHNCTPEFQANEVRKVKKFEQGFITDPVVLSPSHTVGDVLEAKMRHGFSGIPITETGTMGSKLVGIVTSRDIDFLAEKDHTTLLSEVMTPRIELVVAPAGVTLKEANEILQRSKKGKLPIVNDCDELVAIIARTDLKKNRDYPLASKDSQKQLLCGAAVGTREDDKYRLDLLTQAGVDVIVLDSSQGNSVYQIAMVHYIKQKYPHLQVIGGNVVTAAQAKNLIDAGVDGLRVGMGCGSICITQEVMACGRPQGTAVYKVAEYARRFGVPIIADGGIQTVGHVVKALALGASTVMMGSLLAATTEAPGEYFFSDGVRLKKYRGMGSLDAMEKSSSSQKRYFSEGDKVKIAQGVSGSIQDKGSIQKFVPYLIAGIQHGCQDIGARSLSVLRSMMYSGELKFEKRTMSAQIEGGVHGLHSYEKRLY
Sequence of Inosine-5'-monophosphate dehydrogenase (IMPDH) (Homo sapiens) (P20839 whole entry, looked up, other chains not shown): as the sequence (P20839 whole entry) above

As for `COC/C(C)=C/Cc1c(O)c2c(c(C)c1OC)COC2=O`, half-maximal inhibition in assay [1] (IC50) was put at 273 nM.
`COc1c(C)c2c(c(O)c1C/C=C(\C)CP(=O)(OC)OC)C(=O)OC2` returned an IC50 in assay [1] of 289 nM. This IC50 and that of the compound before are within 1.5-fold of each other.
Turning to `COc1c(C)c2c(c(O)c1C/C=C(\C)CCCP(=O)(O)O)C(=O)OC2`, the 50% inhibitory concentration (IC50) in assay [1] was determined as 86 nM.
In assay [1], `COc1c(C)c2c(c(O)c1C/C=C(\C)CN(C=O)CCP(=O)(O)O)C(=O)OC2` registered an IC50 of 749 nM.
Compound `CCc1c(C)c2c(c(O)c1C/C=C(\C)CN(C)CCP(=O)(O)O)C(=O)OC2` showed an IC50 in assay [1] of 132 nM.
`COc1c(C)c2c(c(O)c1C/C=C(\C)CP(=O)(O)O)C(=O)OC2`: it took 168 nM to reach half-maximal inhibition in assay [1] (IC50).
In the case of `COc1c(C)c2c(c(O)c1C/C=C(\C)CCC(=O)O)C(=O)OC2` [MYCOPHENOLIC ACID], half-maximal inhibition in assay [2] (IC50) was put at 32 nM.
Take `CCc1c(C)c2c(c(O)c1C/C=C(\C)CN(CCP(=O)(O)O)S(C)(=O)=O)C(=O)OC2`: in assay [1], the midpoint of inhibition, the IC50, lay at 68 nM. This counts as double-digit nanomolar.
As for `COc1c(C)c2c(c(O)c1C/C=C(\C)CN(C)CCP(=O)(O)O)C(=O)OC2`, the half-inhibitory concentration (IC50) in assay [1] is above 1000 nM.
`COc1c(C)c2c(c(O)c1C/C=C(\C)CN(CCP(=O)(O)O)S(C)(=O)=O)C(=O)OC2` returned an IC50 in assay [1] of 498 nM.
Compound `COc1c(C)c2c(c(O)c1C/C=C(\C)COCP(=O)(O)O)C(=O)OC2` showed an IC50 in assay [1] of 246 nM.
The same measure, in the same setting: with `COc1c(C)c2c(c(O)c1C/C=C(\C)CN(CCP(=O)(O)O)C(C)=O)C(=O)OC2` the figure was 785 nM.
The same measure, in the same setting: with `COc1c(C)c2c(c(O)c1C/C=C(\C)CN(CCP(=O)(O)O)S(N)(=O)=O)C(=O)OC2` the figure was 93 nM.
Regarding `CCc1c(C)c2c(c(O)c1C/C=C(\C)CP(=O)(O)O)C(=O)OC2`, the IC50 in assay [1] was 20 nM; in assay [2] it was 71 nM. The Selectivity ratio in assay [3] worked out at 3.6.
With `CCOP(=O)(CCNC/C(C)=C/Cc1c(O)c2c(c(C)c1OC)COC2=O)OCC`, the IC50 in assay [1] is above 1000 nM.
For `CCc1c(C)c2c(c(O)c1C/C=C(\C)CN(CCP(=O)(O)O)S(N)(=O)=O)C(=O)OC2`, half-maximal inhibition in assay [1] (IC50) was put at 24 nM.
Same read-out and setting: with `COc1c(C)c2c(c(O)c1C/C=C(\C)CCP(=O)(O)O)C(=O)OC2` the figure was 96 nM; with `COc1c(C)c2c(c(O)c1C/C=C(C)/C=C/P(=O)(O)O)C(=O)OC2`, 506 nM; with `COc1c(C)c2c(c(O)c1C/C=C(\C)CNCCP(=O)(O)O)C(=O)OC2`, 499 nM.
Turning to `CCc1c(C)c2c(c(O)c1C/C=C(\C)COCP(=O)(O)O)C(=O)OC2`, the 50% inhibitory concentration (IC50) in assay [1] was found to be 23 nM; in assay [2], 38 nM. Also, the Selectivity ratio in assay [3] was determined as 1.7.
In the case of `COc1c(C)c2c(c(O)c1CC=C(C)C)C(=O)OC2`, in assay [1], the IC50 was 254 nM. In other words, the sub-micromolar range.
With `COc1c(C)c2c(c(O)c1C/C=C(\C)CNCP(=O)(O)O)C(=O)OC2`, the IC50 in assay [1] is above 1000 nM.
For `CCc1c(C)c2c(c(O)c1C/C=C(\C)CNCCP(=O)(O)O)C(=O)OC2`, the IC50 in assay [1] came out at 13 nM; in assay [2], 37 nM. In addition, the Selectivity ratio in assay [3] was determined as 2.8.

Values taken from ChEMBL document CHEMBL1138100 (Bioorg Med Chem Lett, 2006).
